How the values were obtained:
Format in all cases: in vivo
Anthonomus grandis = experiment: Boll weevil (Anthonomus grandis) test, eggs on insect diet in 96-well microtiter plates; conditions: 120 h, egg and larval mortality, 5 days, read-out: mortality in comparison with untreated controls
Protocol: B.3 Boll Weevil (Anthonomus grandis)
For evaluating control of boll weevil (Anthonomus grandis), the test unit consisted of 96-well-microtiter plates containing an insect diet and 5-10 A. grandis eggs.
The compounds were formulated using a solution containing 75% v/v water and 25% v/v DMSO. Different concentrations of formulated compounds were sprayed onto the insect diet at 5 μl, using a custom-built micro atomizer, at two replications.
After application, microtiter plates were incubated at about 25±1° C. and about 75±5% relative humidity for 5 days. Egg and larval mortality was then visually assessed.

Myzus persicae = experiment: Green peach aphid (Myzus persicae) systemic test, artificial diet in 96-well microtiter plates; conditions: 72 h, adult aphids on treated diet, 3 days, read-out: mortality in comparison with untreated controls
Text: B.1 Green Peach Aphid (Myzus persicae)
For evaluating control of green peach aphid (Myzus persicae) through systemic means, the test unit consisted of 96-well-microtiter plates containing liquid artificial diet under an artificial membrane.
The compounds were formulated using a solution containing 75% v/v water and 25% v/v DMSO. Different concentrations of formulated compounds were pipetted into the aphid diet, using a custom built pipetter, at two replications.
After application, 5-8 adult aphids were placed on the artificial membrane inside the microtiter plate wells. The aphids were then allowed to suck on the treated aphid diet and incubated at about 23±1° C. and about 50±5% relative humidity for 3 days. Aphid mortality and fecundity was then visually assessed.

Spodoptera eridania = experiment: Southern armyworm (Spodoptera eridania), 2nd instar larvae, foliar spray on lima bean plants; conditions: 96 h, 2nd instar larvae on sprayed lima bean, 4 days after treatment, read-out: mortality in comparison with untreated controls
Protocol: B.4. Southern Armyworm (Spodoptera eridania), 2nd Instar Larvae
The active compounds were formulated by a Tecan liquid handler in 100% cyclohexanone as a 10,000-ppm solution supplied in tubes. The 10,000-ppm solution was serially diluted in 100% cyclohexanone to make interim solutions. These served as stock solutions for which final dilutions were made by the Tecan in 50% acetone:50% water (v/v) into 10 or 20 ml glass vials. A non-ionic surfactant (Kinetic®) was included in the solution at a volume of 0.01% (v/v). The vials were then inserted into an automated electrostatic sprayer equipped with an atomizing nozzle for application to plants/insects. Lima bean plants (variety Sieva) were grown 2 plants to a pot and selected for treatment at the 1st true leaf stage. Test solutions were sprayed onto the foliage by an automated electrostatic plant sprayer equipped with an atomizing spray nozzle. The plants were dried in the sprayer fume hood and then removed from the sprayer. Each pot was placed into perforated plastic bags with a zip closure. Ten to 11 armyworm larvae were placed into the bag and the bags zipped closed. Test plants were maintained in a growth room at about 25° C. and about 20-40% relative humidity for 4 days, avoiding direct exposure to fluorescent light (14:10 light:dark photoperiod) to prevent trapping of heat inside the bags. Mortality and reduced feeding were assessed 4 days after treatment, compared to untreated control plants.

Heliothis virescens = experiment: Tobacco budworm (Heliothis virescens) test, eggs on insect diet in 96-well microtiter plates; conditions: 120 h, egg and larval mortality, 5 days, read-out: mortality in comparison with untreated controls
Protocol: B.2 Tobacco Budworm (Heliothis virescens)
For evaluating control of tobacco budworm (Heliothis virescens), the test unit consisted of 96-well-microtiter plates containing an insect diet and 15-25 H. virescens eggs.
The compounds were formulated using a solution containing 75% v/v water and 25% v/v DMSO. Different concentrations of formulated compounds were sprayed onto the insect diet at 10 μl, using a custom-built micro atomizer, at two replications.
After application, microtiter plates were incubated at about 28±1° C. and about 80±5% relative humidity for 5 days. Egg and larval mortality was then visually assessed.

Aedes aegypti = experiment: whole plant or invertebrate; conditions: 48 h, larval mortality, 2 days, read-out: mortality in comparison with untreated controls
Protocol: B.5 Yellow Fever Mosquito (Aedes aegypti)
For evaluating control of yellow fever mosquito (Aedes aegypti) the test unit consisted of 96-well-microtiter plates containing 200 μl of tap water per well and 5-15 freshly hatched A. aegypti larvae.
The active compounds were formulated using a solution containing 75% (v/v) water and 25% (v/v) DMSO. Different concentrations of formulated compounds or mixtures were sprayed onto the insect diet at 2.5 μl, using a custom-built micro atomizer, at two replications.
After application, microtiter plates were incubated at 28±1° C., 80±5% RH for 2 days. Larval mortality was then visually assessed.

CCS(=O)(=O)c1cc(-c2ccc(OC(F)F)cc2)cnc1-c1cc(=O)n2c(cc(C(F)(F)F)n2C)n1 [Compound I-4, 5-[5-[4-(difluoromethoxy)phenyl]-3-ethylsulfonyl-2-pyridyl]-1-methyl-2-(trifluoromethyl)pyrazolo[1,5-a]pyrimidin-7-one]
≥ 75%: mortality at 2500 ppm (Anthonomus grandis) | mortality at 2500 ppm (Myzus persicae) | mortality at 300 ppm (Spodoptera eridania) | mortality at 2500 ppm (Heliothis virescens) | mortality at 2500 ppm (Aedes aegypti)

CCS(=O)(=O)c1cc(Br)cnc1-c1nc2cc(C(F)(F)F)n(C)n2c(=O)c1C [Compound I-16, 5-(5-bromo-3-ethylsulfonyl-2-pyridyl)-1,6-dimethyl-2-(trifluoromethyl)pyrazolo[1,5-a]pyrimidin-7-one]
≥ 75%: mortality at 2500 ppm (Anthonomus grandis) | mortality at 2500 ppm (Myzus persicae)

CCS(=O)(=O)c1cc(Br)cnc1-c1cc(=O)n2c(cc(C(F)(F)F)n2C)n1 [Compound I-1, 5-(5-bromo-3-ethylsulfonyl-2-pyridyl)-1-methyl-2-(trifluoromethyl)pyrazolo[1,5-a]pyrimidin-7-one]
≥ 75%: mortality at 2500 ppm (Anthonomus grandis) | mortality at 2500 ppm (Myzus persicae) | mortality at 2500 ppm (Heliothis virescens) | mortality at 2500 ppm (Aedes aegypti)

CCS(=O)(=O)c1cc(N=S(C)(C)=O)cnc1-c1cc(=O)n2c(cc(C(F)(F)F)n2C)n1 [Compound I-2, 5-[5-[[dimethyl(oxo)-λ6-sulfanylidene]amino]-3-ethylsulfonyl-2-pyridyl]-1-methyl-2-(trifluoromethyl)pyrazolo[1,5-a]pyrimidin-7-one]
≥ 75%: mortality at 2500 ppm (Anthonomus grandis) | mortality at 2500 ppm (Myzus persicae) | mortality at 2500 ppm (Aedes aegypti)

CCS(=O)(=O)c1cc(-c2ccc(F)cc2)cnc1-c1cc(=O)n2c(cc(C(F)(F)F)n2C)n1 [Compound I-3, 5-[3-ethylsulfonyl-5-(4-fluorophenyl)-2-pyridyl]-1-methyl-2-(trifluoro-methyl)pyrazolo[1,5-a]pyrimidin-7-one]
≥ 75%: mortality at 2500 ppm (Anthonomus grandis) | mortality at 2500 ppm (Myzus persicae) | mortality at 300 ppm (Spodoptera eridania) | mortality at 2500 ppm (Heliothis virescens) | mortality at 2500 ppm (Aedes aegypti)

CCS(=O)(=O)c1cc(Br)ccc1-c1cc(=O)n2c(cc(C(F)(F)F)n2C)n1 [Compound I-7, 5-(4-bromo-2-ethylsulfonyl-phenyl)-1-methyl-2-(trifluoromethyl)pyrazolo[1,5-a]pyrimidin-7-one]
≥ 75%: mortality at 2500 ppm (Myzus persicae) | mortality at 300 ppm (Spodoptera eridania) | mortality at 2500 ppm (Aedes aegypti)

— patent publication US20250026757A1, “Bicyclic Compounds for the Control of Invertebrate Pests” (BASF SE, priority 2021, published 2025)
